Results from patent publication US7960543B2, “Nucleoside or nucleotide derivative and use thereof” (RIKEN, priority 2004, dated 2011).
Where “and” joins values, the source holds several entries; their conditions need not be identical. Identical values can stand only once. Like-named read-outs stand apart in the source and are kept apart here.

Key:
[1] = for Emission maxima: excited at the wavelength printed in the cell (493, 553 or 320 nm), pH 7.0, 25° C.; for Quantum yield: pH 7.0 aqueous solution, standard fluorescein in 0.1 N NaOH, φs=0.90
Method: A 3×3 mm cell was used for measurement, and the following settings were used to measure each spectrum: response 1.0 s, sensitivity low, and slit width fixed at 3 nm for both excitation and fluorescence sides.
The quantum yield (φ) was calculated according to the following equation and fluorescein (1.0 μM in 0.1 N NaOH, φs=0.90) was used as a standard. φ=(F·As·η^2·φs)/(A·Fs·η0^2)
F: Area of each fluorescence spectrum
A: Absorbance at the excitation wavelength
η: Refractive index (water: 1.33)

T7 RNA polymerase [2] = molecular target: T1, T7 RNA polymerase (Escherichia phage T7, UniProt P00573); conditions: compared to transcription using the natural template and substrates only; 1 mM modified yTP, 37° C., 3 hours
T1 sequence (P00573 whole entry): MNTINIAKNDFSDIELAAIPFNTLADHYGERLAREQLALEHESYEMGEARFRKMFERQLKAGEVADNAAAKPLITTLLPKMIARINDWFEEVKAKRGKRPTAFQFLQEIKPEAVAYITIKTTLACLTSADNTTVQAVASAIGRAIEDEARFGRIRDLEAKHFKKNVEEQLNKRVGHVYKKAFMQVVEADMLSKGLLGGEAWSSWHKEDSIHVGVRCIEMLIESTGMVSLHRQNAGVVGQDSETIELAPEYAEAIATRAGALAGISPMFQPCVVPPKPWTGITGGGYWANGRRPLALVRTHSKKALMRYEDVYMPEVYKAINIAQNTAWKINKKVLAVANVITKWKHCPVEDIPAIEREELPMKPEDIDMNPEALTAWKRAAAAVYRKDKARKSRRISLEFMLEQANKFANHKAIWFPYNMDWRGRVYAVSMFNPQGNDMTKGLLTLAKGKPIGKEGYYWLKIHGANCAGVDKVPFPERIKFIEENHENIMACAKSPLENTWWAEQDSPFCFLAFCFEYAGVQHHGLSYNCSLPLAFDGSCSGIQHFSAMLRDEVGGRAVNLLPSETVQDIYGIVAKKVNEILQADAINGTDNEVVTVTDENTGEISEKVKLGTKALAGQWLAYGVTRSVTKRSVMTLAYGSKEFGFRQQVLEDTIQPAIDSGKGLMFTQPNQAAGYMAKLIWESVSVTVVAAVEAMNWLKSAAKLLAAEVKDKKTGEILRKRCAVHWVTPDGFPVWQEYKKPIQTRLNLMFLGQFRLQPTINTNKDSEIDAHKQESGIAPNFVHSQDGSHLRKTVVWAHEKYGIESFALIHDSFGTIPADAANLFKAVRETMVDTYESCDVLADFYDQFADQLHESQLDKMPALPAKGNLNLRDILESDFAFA
Method: More specifically, double-stranded template DNA (10 μM) was annealed in 10 mM Tris-HCl buffer (pH 7.6) containing 10 mM NaCl under the following conditions: 95° C. for 3 minutes→50° C. for 3 minutes→slow cooling to 4° C. T7 transcription reaction was accomplished in a reaction solution (20 μl) containing 40 mM Tris-HCl buffer (pH 8.0), 24 mM MgCl2, 2 mM spermidine, 5 mM DTT, 0.01% Triton X-100, 2 μCi [y-^32P]GTP, 1 mM NTPs, 1 mM modified yTP, 2 μM template DNA, and 50 units of T7 RNA polymerase (Takara).
The template DNA used was a duplex formed between T7 promoter-containing 35-mer template strand and T7 promoter non-template strand 21-mer, which has been modified to have s or v introduced at a single position within the template.
where N(5)=v (the present invention), s (the present invention) or A (control)
where N′(13)=NH2-y, FAM-y or TAMRA-y
The modified substrate was added in the same amount as the natural substrates and reacted at 37° C. for 3 hours, followed by addition of an electrophoresis dye solution (20 μl) containing 10 M urea to stop the reaction. The reaction solution was heated at 75° C. for 3 minutes and then electrophoresed on a 20% polyacrylamide-7 M urea gel. The transcripts were analyzed with a bio-imaging analyzer.

T7 RNA polymerase [3] = molecular target: T1, T7 RNA polymerase; conditions: RNA 17-mer transcript, RNase T2 digest, [α-32P]ATP
Method: The same T7 RNA polymerase-mediated transcription reaction as shown in Example 11 was performed in a reaction solution containing 40 mM Tris-HCl buffer (pH 8.0), 24 mM MgCl2, 2 mM spermidine, 5 mM DTT, 0.01% Triton X-100, 2 μCi [α-^32P]ATP, 1 mM NTPs, 1 mM modified-yTP, 2 μM template DNA, and 50 units of T7 RNA polymerase (Takara). After electrophoresis on a 15% polyacrylamide-7 M urea gel, the transcript was eluted from the gel and collected by ethanol precipitation in the presence of tRNA (0.25 OD).
To this tRNA-containing solution (8.5 μl), RNase T2 (1.5 μl, 1 unit/μl) was added and reacted overnight at 37° C. 0.3 μl of this solution was spotted on a TLC plate (Merck, 10 cm×10 cm) and developed two-dimensionally. As a developing solution, isobutyric acid:concentrated aqueous ammonia:water=66:1:33 (v/v/v) was used for the first dimension and 2-propanol:hydrochloric acid:water=65:10:25 (v/v/v) was used for the second dimension. The developed spots were detected and analyzed with a bio-imaging analyzer.

[4] = 1.0 μM in 10 mM sodium phosphate buffer (pH 7.0), 25° C.

Compound | Absorption maxima [1, 4] | Emission maxima [1] | Quantum yield [1] | yield of RNA incorporating the modified substrate (T7 RNA polymerase [2]) | ε at absorption maximum [1, 4] | incorporation opposite v in the template (T7 RNA polymerase [3]) | Absorption maxima ([1]; pH 7) | ε at absorption maximum ([1]; pH 7)
CN(C)c1cccc2c(S(=O)(=O)NCCCCCC(=O)NCCCCCC(=O)NCC#Cc3c[nH]c(=O)c([C@@H]4O[C@H](COP(=O)(O)OP(=O)(O)OP(=O)(O)O)[C@@H](O)[C@H]4O)c3)cccc12 [Dansyl-x-yTP, 3-(β-D-ribofuranosyl)-5-[3-[6-[6-[(5-dimethylaminonaphthalene-1-sulfonyl)amino]hexanamido]hexanamido]-1-propynyl]-2-oxo(1H)pyridine 5′-triphosphate] | 319 nm and 252 nm | 387 nm and 541 nm | 0.014 |  |  |  |  | 
O=C(CCCCCNC(=O)c1ccc2c(c1)C(=O)OC21c2ccc(O)cc2Oc2cc(O)ccc21)NCC#Cc1c[nH]c(=O)c([C@@H]2O[C@H](COP(=O)(O)OP(=O)(O)OP(=O)(O)O)[C@@H](O)[C@H]2O)c1 [FAM-yTP, 3-(β-D-ribofuranosyl)-5-[3-[6-(fluorescein-5-carboxamido)hexanamido]-1-propynyl]-2-oxo(1H)pyridine 5′-triphosphate] | 493 nm |  | 0.55 | 76% | 62,000 |  |  | 
NCCCCCC(=O)NCC#Cc1c[nH]c(=O)c([C@@H]2O[C@H](COP(=O)(O)OP(=O)(O)OP(=O)(O)O)[C@@H](O)[C@H]2O)c1 [NH2-yTP, 3-(β-D-ribofuranosyl)-5-[3-(6-aminohexanamido)-1-propynyl]-2-oxo(1H)pyridine 5′-triphosphate] |  |  |  | same yield |  | specific incorporation |  | 
CN(C)c1ccc2c(-c3cc(C(=O)NCCCCCC(=O)NCC#Cc4c[nH]c(=O)c([C@@H]5O[C@H](COP(=O)(O)OP(=O)(O)OP(=O)(O)O)[C@@H](O)[C@H]5O)c4)ccc3C(=O)[O-])c3ccc(N(C)C)cc3[o+]c2c1 [TAMRA-yTP, 3-(β-D-ribofuranosyl)-5-[3-[6-(tetramethylrhodamine-5-carboxamido)hexanamido]-1-propynyl]-2-oxo(1H)pyridine 5′-triphosphate] |  |  | 0.50 | 61% |  |  | 553 nm and 553 (ε 85,000) nm | 553 (ε 85,000)
O=C(NCC#Cc1c[nH]c(=O)c([C@@H]2O[C@H](COP(=O)(O)OP(=O)(O)OP(=O)(O)O)[C@@H](O)[C@H]2O)c1)c1ccc2c(c1)C(=O)OC21c2ccc(O)cc2Oc2cc(O)ccc21 [short FAM-yTP, 3-(β-D-ribofuranosyl)-5-[3-(fluorescein-5-carboxamido)-1-propynyl]-2-oxo(1H)pyridine 5′-triphosphate] | 493 nm | 521 (excited at 493 nm) | 0.67 |  | 70,000 |  |  | 
